What was measured:
[1] = test system: male humans with non-metastatic castration-resistant prostate cancer; assay: Phase II clinical trial in non-metastatic castration-resistant prostate cancer, PSA decline from baseline; assay type: in vivo, human; settings: 240 mg orally, continuous daily dosing schedule
[2] = test system: non-castrate hormone-sensitive and bicalutamide-resistant human prostate cancer xenograft models; settings: non-castrate hormone-sensitive and bicalutamide-resistant xenografts; Clegg et al. Cancer Res 2012; cited from earlier work
T877A AR mutant = molecular target: T1, T877A AR mutant (Homo sapiens, UniProt P10275, T878A); settings: cited from earlier work
T1 sequence (P10275 1-920 T878A): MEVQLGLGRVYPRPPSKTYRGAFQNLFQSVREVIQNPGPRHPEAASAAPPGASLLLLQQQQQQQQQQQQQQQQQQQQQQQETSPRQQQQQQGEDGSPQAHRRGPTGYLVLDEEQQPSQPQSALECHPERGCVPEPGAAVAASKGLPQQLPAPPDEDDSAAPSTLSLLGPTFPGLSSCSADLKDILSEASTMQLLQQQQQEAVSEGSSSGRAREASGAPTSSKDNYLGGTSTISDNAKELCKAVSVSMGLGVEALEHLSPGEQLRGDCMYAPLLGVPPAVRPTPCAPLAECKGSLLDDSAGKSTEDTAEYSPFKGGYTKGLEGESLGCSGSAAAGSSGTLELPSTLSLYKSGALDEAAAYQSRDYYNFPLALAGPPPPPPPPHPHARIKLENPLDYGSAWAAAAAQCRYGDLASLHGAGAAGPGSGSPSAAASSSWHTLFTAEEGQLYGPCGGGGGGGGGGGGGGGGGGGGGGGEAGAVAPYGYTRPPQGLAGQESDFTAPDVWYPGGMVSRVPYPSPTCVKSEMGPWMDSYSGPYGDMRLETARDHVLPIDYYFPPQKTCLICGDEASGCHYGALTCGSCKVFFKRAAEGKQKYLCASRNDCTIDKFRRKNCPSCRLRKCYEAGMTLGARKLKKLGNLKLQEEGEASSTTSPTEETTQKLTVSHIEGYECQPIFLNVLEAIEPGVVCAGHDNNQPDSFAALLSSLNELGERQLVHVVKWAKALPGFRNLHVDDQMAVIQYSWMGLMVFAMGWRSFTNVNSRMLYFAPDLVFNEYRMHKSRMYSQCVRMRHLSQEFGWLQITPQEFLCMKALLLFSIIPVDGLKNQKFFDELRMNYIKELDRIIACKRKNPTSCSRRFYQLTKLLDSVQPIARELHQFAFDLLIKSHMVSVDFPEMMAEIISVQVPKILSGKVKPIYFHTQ

CNC(=O)c1ccc(N2C(=S)N(c3cnc(C#N)c(C(F)(F)F)c3)C(=O)C23CCC3)cc1F [4-[7-(6-cyano-5-trifluoromethylpyridin-3-yl)-8-oxo-6-thioxo-5,7-diazaspiro[3.4]oct-5-yl]-2-fluoro-N-methylbenzamide]
PSA50 (≥50% decline in PSA from baseline), share of males ([1]; at 3 months): 91% | PSA90 (≥90% decline in PSA from baseline), share of males ([1]; at 3 months): 38% | PSA50 (≥50% decline in PSA from baseline), share of males ([1]; at 6 months): 91% | PSA90 (≥90% decline in PSA from baseline), share of males ([1]; at 6 months): 55% | tumor regression [2]: partial or complete tumor regression

CC(C)(O)C(=O)Nc1ccc([N+](=O)[O-])c(C(F)(F)F)c1 [hydroxyflutamide]
activity in T877A AR mutant (T877A AR mutant): act as AR agonists

— USRE50642E1, “Anti-androgens for the treatment of non-metastatic castrate-resistant prostate cancer” (Aragon Pharmaceuticals, Inc., priority 2012, dated 2025)
